Results from ChEMBL document CHEMBL1201862, “PubChem BioAssay data set” (2004).
Activity calls are given as the source filed them.

How the values were obtained:
[1] = P. falciparum Dd2 growth inhibitors, dose response, SYBR Green, cherry-picked samples (AID 1159567); assay type: functional, cell-based
[2] = blockers of HIV-1 envelope-mediated cell-cell fusion – cherry-pick, dose response (AID 652057); assay type: functional, cell-based
[3] = toxicity to human hepatoma HepG2 cells – cell-based, cherry-picked samples, cytotoxicity control, dose response (AID 1159577); assay type: functional
[4] = target: Peroxisome proliferator-activated receptor gamma/Nuclear receptor coactivator 2 (Homo sapiens, UniProt P37231); assay: (§1) TR-FRET dose response biochemical High Throughput Screening assay for agonists of the steroid receptor coactivator 2 (SRC-2) recruitment by the peroxisome proliferator-activated receptor gamma (PPAR gamma): non-selective agonists. [Related pubchem assays: 1297, 1032 ]; assay type: functional
[5] = target: T1, Polyadenylate-binding protein 1 (Homo sapiens, UniProt P11940); assay: MLLE domain peptide-binding blockers, IC50 – biochemical, fluorescence polarization, FITC-PAM2 peptide, dose response (AID 602259); assay type: functional; details: read-out: IC50_Mean
Ephrin type-A receptor 4 = Ephrin type-A receptor 4 (Mus musculus, UniProt Q03137); assay: EphA4 ligand-binding antagonists – biochemical, colorimetric, mouse EphA4, primary screen (AID 689); assay type: functional
[6] = target: Peroxisome proliferator-activated receptor gamma/Nuclear receptor coactivator 3 (Homo sapiens, UniProt P37231); assay: as §1, with “3 (SRC-3)” for “2 (SRC-2)”, “1301 (Confirmation screen.), 1048 (Primary screen.)]” for “1297, 1032 ]”; assay type: functional
[7] = target: T1, Polyadenylate-binding protein 1; assay: MLLE binding blockers, Cy5 peptide tracer – biochemical, fluorescence polarization, Cy5-PAM2 peptide, secondary, miRNA deadenylation inhibitor project, dose response (AID 602260); assay type: functional; details: read-out: IC50_Mean
Protein skinhead-1 = target: T2, Protein skinhead-1 (Caenorhabditis elegans, UniProt P34707); assay type: functional
T2 sequence (P34707 whole entry): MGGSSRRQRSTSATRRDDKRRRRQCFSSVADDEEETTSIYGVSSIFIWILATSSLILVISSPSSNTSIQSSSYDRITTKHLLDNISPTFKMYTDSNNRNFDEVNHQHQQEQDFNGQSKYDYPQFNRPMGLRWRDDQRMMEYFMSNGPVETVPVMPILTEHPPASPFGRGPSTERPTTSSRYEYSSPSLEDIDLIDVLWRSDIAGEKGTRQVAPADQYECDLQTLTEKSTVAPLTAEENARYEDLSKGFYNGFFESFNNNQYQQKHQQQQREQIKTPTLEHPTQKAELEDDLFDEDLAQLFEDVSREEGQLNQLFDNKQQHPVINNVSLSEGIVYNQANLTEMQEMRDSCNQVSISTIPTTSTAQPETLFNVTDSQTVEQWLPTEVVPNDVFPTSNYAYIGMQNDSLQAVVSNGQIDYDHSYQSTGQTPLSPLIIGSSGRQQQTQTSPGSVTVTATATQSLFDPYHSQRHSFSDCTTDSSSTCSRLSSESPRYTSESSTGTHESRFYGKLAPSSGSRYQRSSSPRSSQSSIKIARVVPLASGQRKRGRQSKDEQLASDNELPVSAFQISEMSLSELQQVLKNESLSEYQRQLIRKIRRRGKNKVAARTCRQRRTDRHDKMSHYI

[8] = target: Peroxisome proliferator-activated receptor gamma/Nuclear receptor coactivator 1 (Homo sapiens, UniProt P37231); assay: as §1, with “1 (SRC-1)” for “2 (SRC-2)”, “assays (depositor defined):AID1300, AID1808, AID504735, AID631]” for “assays: 1297, 1032 ]”; assay type: protein assay
[9] = HEK293 Cytotoxicity Assay Measured in Cell-Based System Using Plate Reader - 7071-01_Inhibitor_Dose_CherryPick_Activity_Set2.; assay type: functional
HEK293 = assay: viability loss in HEK293T cells – cell-based, ATP luminescence, cherry-pick samples, cytotoxicity control, dose response (AID 687005); assay type: functional; details: Homo sapiens;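 further: cells exposed to compound for 48 hours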
[10] = growth inhibition of yeast DHODH-expressing 3D7 parasites – SYBR Green, dry powder samples, dose response (AID 1159570); assay type: functional, cell-based;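 further: parasite growth measured after 72 hours of compound exposure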
[11] = Plasmodium falciparum Dd2 Sybr green parasite growth Measured in Cell-Based and Microorganism Combination System Using Plate Reader - 2153-01_Inhibitor_Dose_DryPowder_Activity_Set3.; assay type: functional
[12] = growth inhibition of PfATP4-mutant resistant parasites – NITD609-resistant line, SYBR Green, dry powder, dose response (AID 1159571); assay type: functional, cell-based;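 further: parasites synchronized at ring stage by sorbitol before testing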
[13] = Dd2 malaria parasite growth inhibition potency – SYBR Green, dry powder samples, dose response (AID 1159566); assay type: functional, cell-based;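 further: potency for growth inhibition with lower SYBR green DNA signal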
[14] = toxicity to human HepG2 hepatoma cells – cell-based, plate reader, dry powder samples, cytotoxicity control, dose response (AID 1159569); assay type: functional;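 further: inhibitor potency with signal falling toward the positive control level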
[15] = target: NAD-dependent protein deacylase sirtuin-5, mitochondrial (Homo sapiens, UniProt Q9NXA8); assay: sirtuin-5 deacylation blockers, concentration series – biochemical, fluorescence imaging, cherry-pick, set 5, dose response (AID 720591);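 further: desuccinylation of succinyl peptide AMC substrate read as fluorescence after trypsin release; potency of inhibitors that lower fluorescence and may act on trypsin instead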
H9c2 = assay: cells; assay type: functional, cell-based; details: Rattus norvegicus, H9c2, Myocardium
[16] = CTGF mRNA reduction in DLD1 cells – cell-based, DLD1 colon cancer, RT-qPCR, cherry-pick, dose response (AID 1053122); assay type: functional; details: Cancer cell lines
[17] = YAP1 overexpression rescue of CTGF inhibition – DLD1 cells, RT-qPCR, cherry-pick, mechanism study for YAP1 pathway inhibitor project, dose response (AID 1053127); assay type: functional, cell-based; details: DLD-1
[18] = IC50 of insulin release inhibition, rat insulinoma INS-1E line, 5 mM glucose, cell-based (AID 1117331); assay type: functional

T1 sequence (P11940 whole entry, the tested form may be a part): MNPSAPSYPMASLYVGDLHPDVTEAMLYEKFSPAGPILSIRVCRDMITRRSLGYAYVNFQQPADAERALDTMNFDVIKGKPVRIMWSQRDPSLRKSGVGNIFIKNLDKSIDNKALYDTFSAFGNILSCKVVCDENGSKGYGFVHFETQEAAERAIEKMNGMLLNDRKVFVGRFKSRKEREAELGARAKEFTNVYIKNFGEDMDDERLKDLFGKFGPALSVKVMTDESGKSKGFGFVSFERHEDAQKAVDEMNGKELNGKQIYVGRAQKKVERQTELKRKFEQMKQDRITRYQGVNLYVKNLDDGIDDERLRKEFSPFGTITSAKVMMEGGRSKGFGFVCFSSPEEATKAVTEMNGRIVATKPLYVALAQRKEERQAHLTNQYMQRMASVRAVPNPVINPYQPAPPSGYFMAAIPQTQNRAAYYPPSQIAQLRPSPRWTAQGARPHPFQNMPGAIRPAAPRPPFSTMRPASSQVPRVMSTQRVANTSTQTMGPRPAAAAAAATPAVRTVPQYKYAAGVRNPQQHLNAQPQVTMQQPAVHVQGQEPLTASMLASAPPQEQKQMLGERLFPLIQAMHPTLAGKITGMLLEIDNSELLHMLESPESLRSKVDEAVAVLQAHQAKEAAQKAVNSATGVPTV
Chain of NAD-dependent protein deacylase sirtuin-5, mitochondrial (Q9NXA8 whole entry): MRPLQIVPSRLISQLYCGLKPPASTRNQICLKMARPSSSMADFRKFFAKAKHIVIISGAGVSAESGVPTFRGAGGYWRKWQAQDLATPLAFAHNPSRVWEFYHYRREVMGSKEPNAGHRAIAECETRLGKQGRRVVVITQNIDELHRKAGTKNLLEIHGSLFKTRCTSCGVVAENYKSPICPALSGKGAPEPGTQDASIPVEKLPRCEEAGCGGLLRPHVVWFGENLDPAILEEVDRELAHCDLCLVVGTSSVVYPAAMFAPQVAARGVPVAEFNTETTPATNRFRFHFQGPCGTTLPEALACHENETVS
Chain of Peroxisome proliferator-activated receptor gamma/Nuclear receptor coactivator 1 (P37231 whole entry): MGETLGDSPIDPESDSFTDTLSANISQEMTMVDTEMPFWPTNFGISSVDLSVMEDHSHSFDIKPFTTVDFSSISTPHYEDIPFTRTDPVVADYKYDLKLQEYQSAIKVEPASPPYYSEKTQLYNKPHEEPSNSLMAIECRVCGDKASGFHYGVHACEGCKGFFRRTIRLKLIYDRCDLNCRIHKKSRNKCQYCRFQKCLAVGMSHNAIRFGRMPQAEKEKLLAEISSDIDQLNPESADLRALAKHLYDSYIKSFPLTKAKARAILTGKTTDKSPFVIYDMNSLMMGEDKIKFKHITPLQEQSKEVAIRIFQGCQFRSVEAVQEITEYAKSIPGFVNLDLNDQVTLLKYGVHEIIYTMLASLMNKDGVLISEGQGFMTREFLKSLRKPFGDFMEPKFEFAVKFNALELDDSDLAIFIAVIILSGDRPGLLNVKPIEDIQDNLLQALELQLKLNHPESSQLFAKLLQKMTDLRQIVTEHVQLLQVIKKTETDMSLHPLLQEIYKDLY
Chain of Peroxisome proliferator-activated receptor gamma/Nuclear receptor coactivator 1 (Q15788 whole entry, further chain): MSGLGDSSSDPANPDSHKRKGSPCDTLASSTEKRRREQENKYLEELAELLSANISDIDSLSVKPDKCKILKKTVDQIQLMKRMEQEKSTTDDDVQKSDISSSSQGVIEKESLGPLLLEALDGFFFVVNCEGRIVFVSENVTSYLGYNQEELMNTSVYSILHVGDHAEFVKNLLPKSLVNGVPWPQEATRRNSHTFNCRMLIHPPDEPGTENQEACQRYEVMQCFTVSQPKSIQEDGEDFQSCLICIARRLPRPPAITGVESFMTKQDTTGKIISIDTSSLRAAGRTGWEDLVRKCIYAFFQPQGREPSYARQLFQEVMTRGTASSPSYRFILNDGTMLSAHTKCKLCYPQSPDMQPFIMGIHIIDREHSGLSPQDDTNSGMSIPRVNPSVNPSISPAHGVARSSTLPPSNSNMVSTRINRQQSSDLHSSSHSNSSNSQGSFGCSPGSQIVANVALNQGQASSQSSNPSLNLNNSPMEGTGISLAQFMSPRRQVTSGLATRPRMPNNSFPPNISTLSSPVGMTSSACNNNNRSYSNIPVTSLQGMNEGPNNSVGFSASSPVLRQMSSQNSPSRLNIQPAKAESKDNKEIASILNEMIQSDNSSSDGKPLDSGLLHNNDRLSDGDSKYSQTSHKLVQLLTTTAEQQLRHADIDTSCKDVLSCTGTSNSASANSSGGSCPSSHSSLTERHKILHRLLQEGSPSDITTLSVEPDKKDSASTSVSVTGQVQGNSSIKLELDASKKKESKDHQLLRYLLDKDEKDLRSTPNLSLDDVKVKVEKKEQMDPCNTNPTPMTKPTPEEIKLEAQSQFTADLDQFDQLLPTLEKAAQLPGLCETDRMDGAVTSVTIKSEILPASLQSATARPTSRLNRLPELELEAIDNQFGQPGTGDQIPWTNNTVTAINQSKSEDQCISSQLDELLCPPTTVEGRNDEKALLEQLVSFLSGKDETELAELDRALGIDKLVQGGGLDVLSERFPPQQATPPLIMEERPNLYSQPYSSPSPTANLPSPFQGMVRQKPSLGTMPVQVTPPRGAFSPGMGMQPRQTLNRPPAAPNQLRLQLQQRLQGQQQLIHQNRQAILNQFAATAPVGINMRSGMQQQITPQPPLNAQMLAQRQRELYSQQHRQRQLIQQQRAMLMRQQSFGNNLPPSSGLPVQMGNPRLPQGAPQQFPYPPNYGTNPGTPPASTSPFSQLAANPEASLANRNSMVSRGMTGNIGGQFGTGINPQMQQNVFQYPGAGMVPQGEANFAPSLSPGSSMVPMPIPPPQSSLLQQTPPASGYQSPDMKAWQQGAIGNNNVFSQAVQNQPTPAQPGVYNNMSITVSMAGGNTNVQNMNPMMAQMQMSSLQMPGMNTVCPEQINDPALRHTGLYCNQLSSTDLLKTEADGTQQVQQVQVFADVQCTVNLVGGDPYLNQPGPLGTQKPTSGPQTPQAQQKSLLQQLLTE
Chain of Peroxisome proliferator-activated receptor gamma/Nuclear receptor coactivator 3 (P37231 whole entry): as the sequence (P37231 whole entry) above
Chain of Peroxisome proliferator-activated receptor gamma/Nuclear receptor coactivator 3 (Q9Y6Q9 whole entry, further chain): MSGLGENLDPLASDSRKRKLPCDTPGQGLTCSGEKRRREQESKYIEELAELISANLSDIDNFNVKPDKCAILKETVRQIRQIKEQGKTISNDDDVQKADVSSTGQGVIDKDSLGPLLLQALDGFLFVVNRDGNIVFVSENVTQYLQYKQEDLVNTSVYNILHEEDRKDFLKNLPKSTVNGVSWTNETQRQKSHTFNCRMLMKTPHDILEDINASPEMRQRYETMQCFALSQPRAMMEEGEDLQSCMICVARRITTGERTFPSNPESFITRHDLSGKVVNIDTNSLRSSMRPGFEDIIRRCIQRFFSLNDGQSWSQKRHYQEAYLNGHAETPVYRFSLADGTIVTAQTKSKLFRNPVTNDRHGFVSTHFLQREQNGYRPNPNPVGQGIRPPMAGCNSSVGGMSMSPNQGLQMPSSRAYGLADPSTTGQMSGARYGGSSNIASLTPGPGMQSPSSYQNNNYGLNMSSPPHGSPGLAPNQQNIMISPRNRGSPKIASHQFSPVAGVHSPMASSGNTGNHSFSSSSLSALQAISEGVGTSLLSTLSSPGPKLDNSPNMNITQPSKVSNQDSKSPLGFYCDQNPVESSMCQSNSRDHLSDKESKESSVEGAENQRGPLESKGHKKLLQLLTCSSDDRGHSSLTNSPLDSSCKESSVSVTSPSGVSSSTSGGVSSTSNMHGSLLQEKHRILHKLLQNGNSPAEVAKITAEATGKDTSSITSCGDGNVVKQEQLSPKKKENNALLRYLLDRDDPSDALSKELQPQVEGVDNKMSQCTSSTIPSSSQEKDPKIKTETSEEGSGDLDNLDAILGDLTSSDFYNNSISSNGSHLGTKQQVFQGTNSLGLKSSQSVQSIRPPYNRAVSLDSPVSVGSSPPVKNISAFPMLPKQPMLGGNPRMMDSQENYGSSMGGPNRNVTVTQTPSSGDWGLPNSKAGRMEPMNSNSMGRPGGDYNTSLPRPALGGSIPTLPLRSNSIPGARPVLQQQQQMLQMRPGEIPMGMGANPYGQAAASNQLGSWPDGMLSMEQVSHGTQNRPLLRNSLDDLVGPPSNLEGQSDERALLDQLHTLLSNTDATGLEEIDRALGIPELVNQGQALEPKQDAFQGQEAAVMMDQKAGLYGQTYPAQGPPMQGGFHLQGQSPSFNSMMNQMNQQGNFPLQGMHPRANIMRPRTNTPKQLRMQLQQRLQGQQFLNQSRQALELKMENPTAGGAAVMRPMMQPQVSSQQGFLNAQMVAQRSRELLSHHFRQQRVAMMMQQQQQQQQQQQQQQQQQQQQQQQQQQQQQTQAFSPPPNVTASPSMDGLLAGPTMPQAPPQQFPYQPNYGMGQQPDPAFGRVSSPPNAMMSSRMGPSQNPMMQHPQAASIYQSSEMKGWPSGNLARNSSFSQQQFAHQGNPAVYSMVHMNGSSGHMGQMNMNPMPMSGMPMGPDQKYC

## COc1ccc2c3c(n(C)c2c1)[C@@H](CO)N(C(=O)C1CCOCC1)CC31CCN(Cc2cccc(F)c2)CC1
[1]
  AC50: 6.52 µM (active)
[2]
  AC50: 0.629 µM (active)
[3]
  AC50: 10.8 µM (active)

## Cc1cc2cc(CNC(=O)c3ccc(S(=O)(=O)N4CCCCC4)cc3)ccc2n1C
[4]
  EC50: 3.37 µM (active)
[5]
  IC50: > 66 µM (inactive)
Ephrin type-A receptor 4
  IC50: 15.8 µM (active)
[6]
  EC50: 8.51 µM (active)
[7]
  IC50: > 66 µM (inactive)
Protein skinhead-1
  IC50: > 100 µM (inactive)
[8]
  EC50: 3.8 µM (active)

## O=C(CN(c1ccc(F)cc1)S(=O)(=O)c1ccccc1)NC1CCCCCC1
[9]
  AC50: 33.4 µM (active)
HEK293
  AC50: 33.4 µM (active)

## N#C[C@@H]1[C@H](c2ccc(-c3cccc(F)c3)cc2)[C@@H](CO)N1C(=O)NC1CCCC1
[1]
  AC50: 0.483 µM (active)
[10]
  AC50: 13 µM (active)
[11]
  AC50: 0.326 µM (active)
[12]
  AC50: 0.239 µM (active)
[13]
  AC50: 0.117 µM (active)
[14]
  AC50: > 100 µM (inactive)

## COc1ccc(S(=O)(=O)N2CCOCC2)cc1NC(=O)c1cccc2c(=O)c(C)c(-c3ccccc3)oc12
[15]
  AC50: > 30 µM (inactive)
H9c2
  IC50: > 79 µM (inactive)

## COc1ccccc1NC(=O)N1CCCCN2[C@H](CO)[C@H](c3ccc(-c4cccc(C#N)c4)cc3)[C@@H]2C1
[16]
  AC50: 1.44 µM (active)
[17]
  AC50: 11.6 µM (active)

## COc1ccc(CN(CCN(C)C)c2ccccn2)cc1 [PYRILAMINE]
[18]
  IC50: 15.4 µM (inactive)

## C[C@H]1CCCCO[C@H](CN(C)S(=O)(=O)c2ccc(Cl)cc2)[C@@H](C)CN([C@@H](C)CO)C(=O)c2cc(NS(=O)(=O)c3cccs3)ccc2O1
[9]
  AC50: 15.6 µM (active)
HEK293
  AC50: 15.6 µM (active)
